Like-named read-outs stand apart in the source and are kept apart here.
Target: T1, human steroid 5-α-reductase (Homo sapiens, UniProt P31213)
T1 construct: Frozen human prostates were thawed and minced into small pieces; from tissue; host or cells: hyperplastic human prostate, washed 140,000×g particulate fraction
T1 sequence (P31213 1-254): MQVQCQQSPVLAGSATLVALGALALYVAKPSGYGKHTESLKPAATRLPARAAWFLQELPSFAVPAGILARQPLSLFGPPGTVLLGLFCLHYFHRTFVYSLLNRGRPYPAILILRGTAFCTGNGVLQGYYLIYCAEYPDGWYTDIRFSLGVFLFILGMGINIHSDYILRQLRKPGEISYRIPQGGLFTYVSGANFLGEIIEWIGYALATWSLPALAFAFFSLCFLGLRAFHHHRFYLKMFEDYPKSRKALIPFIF
Assay: inhibition of human steroid 5-α-reductase using tissue from hyperplastic human prostates
Type: biochemical
Procedure: The tissue was homogenized in 3 to 5 volumes of 20 mM potassium phosphate, pH 6.5, buffer containing 0.33 M sucrose, 1 mM dithiothreitol, and 50 μM NADPH with a Brinkmann Polytron (Sybron Corporation, Westbury, N.Y.).
The resulting pellet was suspended in 20 mM potassium phosphate buffer, pH 6.5, containing 20% glycerol, 1 mM dithiothreitol, and 50 μM NADPH. The suspended particulate solution was stored at -80° C.
After incubating the solution at 37° C. for 20 to 30 minutes the reaction was quenched by the addition of 4 ml ethyl acetate and 0.25 μmol each of testosterone, dihydrotestosterone, androstanediol, and androstanedione as carriers. The organic layer was removed to a second test tube and evaporated to dryness in vacuo. […] The radiochemical content in the bands of the substrate and the products was determined with a BIOSCAN Imaging Scanner (Bioscan, Inc., Washington, D.C.). The percent of recovered radiolabel converted to product was calculated, from which enzyme activity was determined. All incubations were conducted such that no more than 12% of the substrate (testosterone) was consumed.
Assuming that the steroidal inhibitor is a competitive inhibitor against testosterone, a value for the inhibition constant (Ki) can be calculated from equation 1: […]

Compound | Ki [nM] | Ki (human prostatic particulate enzyme, [14C]-testosterone substrate, pH 5.0, 37° C., 20 to 30 minutes, Dixon plot, assuming competitive inhibition against testosterone, read-out: inhibition constant (Ki)) [nM]
CC(C)N(C(=O)[C@H]1CC[C@H]2[C@@H]3CC[C@H]4CC([N+](=O)[O-])=CC[C@]4(C)[C@H]3CC[C@]12C)C(C)C [2-ene analogue, 17β-N,N-diisopropylcarboxamide-3-nitro-5-α-androst-2-ene] | 250 | –
CC(C)N(C(=O)[C@H]1CC[C@H]2[C@@H]3CC[C@H]4C=C([N+](=O)[O-])CC[C@]4(C)[C@H]3CC[C@]12C)C(C)C [17β-N,N-Diisopropylcarboxamide-3-nitro-5-α-androst-3-ene] | – | 50

From patent US4970204A, “3-substituted nitro-steroid derivatives as 5-α-reductase inhibitors” (SmithKline Beecham Corporation, priority 1989, dated 1990)
